Reference: US20250257034A1, “INDOLE DERIVATIVES AS SEROTONERGIC AGENTS USEFUL FOR THE TREATMENT OF DISORDERS RELATED THERETO” (priority 2023, published 2025)
Read-outs that look alike come from different tables or passages of the source.

Experiments:
Type in all cases: cell-based
5-HT2B receptor [1] = target: T1, 5-HT2B receptor (Homo sapiens, UniProt P41595); assay: h-5HT2B positive allosteric modulator (PAM) assay in HEK293 cells; parameters: expressed in transfected cells; host or cells: HEK293, stably transfected; details: for Emax (% of serotonin): PAM mode
Procedure: Compound potency (EC50) and efficacy (Max response) against the human 5-HT2B receptor in stably transfected HEK293 cells was determined in a GPC R cell-based assay.
(§1) For Positive Allosteric Modulator determination, cells were pre-incubated with sample followed by EC20 addition. Intermediate dilution of sample stocks was performed to generate 5×sample in assay buffer. 5 μL of 5×sample was added to cells and incubated at 37° C. for 10 minutes. 5 μL of agonist at 6×EC20 concentration was added and cells were incubated at 37° C. for 120 minutes. Final assay vehicle concentration was 1%. The results are expressed as a percent efficacy relative to the maximum response of the control ligand (serotonin) in Table 29.
as §1, with “58.” for “29.”

5-HT2B receptor [2] = target: T1, 5-HT2B receptor; assay: h-5HT2B FLIPR calcium mobilization assay in HEK293 cells; parameters: expressed in transfected cells; host or cells: HEK293, stably transfected
Procedure: Compound potency (EC50) and efficacy (Max response) against the human 5-HT2B receptor in stably transfected HEK293 cells was determined in a calcium mobilization-based assay.
Cells were seeded in a total volume of 20 μL into white walled, 384-well microplates and incubated at 37° C. overnight. Prior to testing, cell plating media was exchanged with 20 μL of Dye Loading buffer (HBSS+20 mM HEPES containing 1×Dye, 1×Additive A and 2.5 mM Probenecid). Plates were incubated at 37° C. for 45 mins followed by 15 mins at room temperature.
(§2) 10 μl of assay buffer (HBSS+20 mM HEPES) was added to cells. Intermediate dilution of sample stocks was performed to generate 4×sample in assay buffer. Assay plates, compound plates were loaded into F LIP R instrument. 10 μL of sample was added using F LIP R onboard robotics after 5 seconds of starting calcium measurement. Final assay vehicle concentration was 1%. The results are expressed as a percent efficacy relative to the maximum response of the control ligand (serotonin) in Table 28.
as §2, with “57.” for “28.”

human 5-HT2A receptor = human 5-HT2A receptor (Homo sapiens, UniProt P28223); assay: h-5HT2A β-arrestin reporter assay in U2OS cells; parameters: expressed in transfected cells
Procedure: (§3) Compound potency (EC50) and efficacy (Max response) against the human 5-HT2A receptor in stably transfected U2OS cells was determined in a G protein-coupled receptors (GPCR) cell based p-arrestin reporter assay. Cells were seeded in a total volume of 20 μL into white walled, 384-well microplates and incubated at 37° C. overnight before analysis. For agonist determination, cells were incubated with sample to induce response. Intermediate dilution of sample stocks was performed to generate 5×sample in assay buffer. 5 μL of 5×sample was added to cells and incubated at 37° C. for 120 minutes. Final assay vehicle concentration was 1%.
as §3, with “5-HT2Areceptor” for “5-HT2A receptor”, “GPCR” for “G protein-coupled receptors (GPCR)”, “P-arrestin” for “p-arrestin”

human 5-HT1A receptor = target: T2, human 5-HT1A receptor (Homo sapiens, UniProt P08908); assay: Human 5HT1A cAMP assay in CHO-K1 cells; parameters: expressed in transfected cells
T2 sequence (P08908 1-422): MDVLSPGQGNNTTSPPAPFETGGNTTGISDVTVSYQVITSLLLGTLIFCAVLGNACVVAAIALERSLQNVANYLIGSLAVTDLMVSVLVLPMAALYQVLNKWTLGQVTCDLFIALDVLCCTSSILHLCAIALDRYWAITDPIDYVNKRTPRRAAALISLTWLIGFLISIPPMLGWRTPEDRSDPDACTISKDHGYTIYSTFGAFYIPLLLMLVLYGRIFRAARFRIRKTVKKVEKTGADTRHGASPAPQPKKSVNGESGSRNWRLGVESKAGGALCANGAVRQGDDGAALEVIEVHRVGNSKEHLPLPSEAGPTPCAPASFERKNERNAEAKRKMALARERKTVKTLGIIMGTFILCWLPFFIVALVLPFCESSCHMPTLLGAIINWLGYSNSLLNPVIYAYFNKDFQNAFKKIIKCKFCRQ
Procedure: Compound potency (EC50) and efficacy (Max response) against the human 5-HT1A receptor in stably transfected CHO-K1 cells was determined in a GPCR cell-based cAMP assay.
(§4) Cells were seeded in a total volume of 20 μL into white walled, 384-well microplates and incubated at 37° C. overnight before analysis. Prior to testing, cell plating media was exchanged with 10 μL of Assay buffer (HBSS+10 mM HE P E S). Briefly, intermediate dilution of sample stocks was performed to generate 4×sample in assay buffer. 5 μL of 4×sample+5 μL of 4×forskolin was added to cells and incubated at 37° C. for 30 minutes. Final assay vehicle concentration was 1%. The results are expressed as a percent efficacy relative to the maximum response of the control ligand (serotonin) in Table 27.
as §4, with “HEPES).” for “HE P E S).”, “4×sample +5” for “4×sample+5”, “56.” for “27.”

[3] = β-arrestin reporter, U2OS cells
[4] = relative to maximum response of serotonin (Table 56)
[5] = relative to maximum response of serotonin (Table 29)
[6] = relative to maximum response of serotonin (Table 28)
[7] = relative to maximum response of control ligand serotonin
[8] = relative to maximum response of serotonin (Table 27)

T1 sequence (P41595 whole entry): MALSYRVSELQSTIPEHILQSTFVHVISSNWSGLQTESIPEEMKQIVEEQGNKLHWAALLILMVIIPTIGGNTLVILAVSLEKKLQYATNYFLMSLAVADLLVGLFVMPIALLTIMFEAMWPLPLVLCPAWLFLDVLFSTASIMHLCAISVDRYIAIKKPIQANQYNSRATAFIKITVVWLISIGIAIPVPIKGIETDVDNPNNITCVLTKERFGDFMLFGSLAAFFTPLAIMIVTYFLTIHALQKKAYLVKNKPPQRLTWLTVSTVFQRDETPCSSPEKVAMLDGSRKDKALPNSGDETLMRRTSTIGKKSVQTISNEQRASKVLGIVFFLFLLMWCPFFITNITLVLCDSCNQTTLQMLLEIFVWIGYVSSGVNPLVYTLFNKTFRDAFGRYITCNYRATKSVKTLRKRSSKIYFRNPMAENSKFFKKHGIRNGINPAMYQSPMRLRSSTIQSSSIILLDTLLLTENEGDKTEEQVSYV
Chain of human 5-HT2A receptor (P28223 whole entry): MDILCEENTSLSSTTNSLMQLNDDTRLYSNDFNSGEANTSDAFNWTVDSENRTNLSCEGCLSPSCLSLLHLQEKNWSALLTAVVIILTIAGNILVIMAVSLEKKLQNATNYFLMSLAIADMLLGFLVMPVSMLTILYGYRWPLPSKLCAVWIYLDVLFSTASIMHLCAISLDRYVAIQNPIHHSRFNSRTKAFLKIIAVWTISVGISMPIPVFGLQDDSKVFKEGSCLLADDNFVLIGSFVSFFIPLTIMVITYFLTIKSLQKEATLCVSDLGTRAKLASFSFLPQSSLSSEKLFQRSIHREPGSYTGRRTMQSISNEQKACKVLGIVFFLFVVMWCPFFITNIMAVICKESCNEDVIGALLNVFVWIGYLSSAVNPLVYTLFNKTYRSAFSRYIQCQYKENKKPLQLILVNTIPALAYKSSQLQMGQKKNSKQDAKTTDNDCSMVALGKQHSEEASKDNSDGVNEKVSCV

| SMILES | EC50 (5-HT2B receptor [1]) [µM] | Emax (% of serotonin) (5-HT2B receptor [1]; HEK293 cells, relative to max response of serotonin) | EC50 (5-HT2B receptor [2]) [µM] | Emax (% of serotonin) (5-HT2B receptor [2]; relative to maximum response of serotonin (Table 57)) | EC50 (human 5-HT2A receptor) [µM] | Emax (% of serotonin) (human 5-HT2A receptor; [3]) | EC50 (human 5-HT1A receptor) [µM] | Emax (% of serotonin) (human 5-HT1A receptor; [4]) | Emax (% of serotonin) (5-HT2B receptor [1]; [5]) | Emax (% of serotonin) (5-HT2B receptor [2]; [6]) | Emax (% of serotonin) (human 5-HT2A receptor; [7]) | Emax (% of serotonin) (human 5-HT1A receptor; [8]) | EC50 (human 5-HT2A receptor; β-arrestin reporter, U2OS cells, 120 min, read-out: EC50) [µM] | EC50 (human 5-HT2A receptor; β-arrestin reporter, U2OS cells, read-out: EC50) [µM] |
| --- | --- | --- | --- | --- | --- | --- | --- | --- | --- | --- | --- | --- | --- | --- |
| COc1ccc2[nH]cc(CCN3CC[C@H](OC(F)F)C3)c2c1 [(S) I-67, (S)-3-(2-(3-(Difluoromethoxy)pyrrolidin-1-yl)ethyl)-5-methoxy-1H-indole] | > 10 | 0 % of serotonin | > 10 | 4.23 % of serotonin | 2.07 | 38.02 % of serotonin | 0.0116 | 98.47 % of serotonin |  |  |  |  |  |  |
| [2H]C([2H])([2H])N(CCc1c[nH]c2ccc(SC)cc12)C([2H])([2H])[2H] [Compound I-1, N,N-Bis(methyl-d3)-2-(5-(methylthio)-1H-indol-3-yl)ethan-1-amine] | > 10 |  | > 10 |  | 0.0584 |  | 0.0111 |  | 0 % of serotonin | 19.8 % of serotonin | 74 % of serotonin | 96.18 % of serotonin |  |  |
| CCN(C)CCc1c[nH]c2ccc(SC)cc12 [Compound I-13, N-Ethyl-N-methyl-2-(5-(methylthio)-1H-indol-3-yl)ethan-1-amine] | > 10 |  | > 10 |  | 0.0595 |  | 0.00906 |  | 0 % of serotonin | 21.04 % of serotonin | 75.27 % of serotonin | 100.52 % of serotonin |  |  |
| CN(C)CCc1c[nH]c2ccccc12 [DMT] |  |  |  |  |  | 38.86 % of serotonin |  | 87.1 % of serotonin |  |  | 38.86 % of serotonin | 87.1 % of serotonin | 0.114 | 0.114 |
